Results as given in BindingDB's records for doi:10.1016/s0960-894x(98)00691-x (Novartis Pharmaceuticals, 1999).

Experiment: Inhibition of Cyclin-dependent kinase 1, CDK1-related human bladder carcinoma (T24) cell proliferation

- IC50: 830 nM
Compound: CCn1cnc2c(Nc3cccc(Cl)c3)nc(N[C@H]3CC[C@@H](O)CC3)nc21 [4-[6-(3-Chloro-phenylamino)-9-ethyl-9H-purin-2-ylamino]-cyclohexanol]
